We go through two substances from patent publication US10344330B2, “Glatiramer acetate response biomarker mRNA potency assay” (Mylan Inc., priority 2013, dated 2019).

Where “and” joins values, the source holds several entries; their conditions need not be identical. Equal entries are not always repeated. Where two headings read alike, the source gives them in different places.

Type in all cases: cell-based, mouse
Experiment [1] relates to mIL-10 mRNA in primary LN cells. The experiment is described as follows: mIL-10 mRNA by real-time PCR in stimulated LN cells of immunized (SJL/J×BALB/C)F1 mice (Example I). How it is done: Animals were immunized on Day 0.
Each mouse received a total injection volume of […] (250 μg GA). Animals were immunized on Day 0. […] Lymph nodes from immunized mice were removed and isolated.
Expression of cytokine mRNA was quantitatively analyzed 4 and 6 hours after using a Real-Time PCR system (7500, Applied Biosystems).

The test system of experiment [2] is IL-2 secreted by LN cells. Description: IL-2 secretion by GA-stimulated LN cells, MSD 9-plex ELISA (Example II). Particulars: for IL-2 secretion response ratio (treated cell medium to control DCCM1 medium): 21 hr.
Another experiment relates to TNF-α mRNA in LN cells. Description: TNF-α mRNA by real-time PCR in LN cells of GA-immunized CD-1, BALB/cByJ, SJL/J mice (Example III). Particulars: 6 hours. How it is done:
On Day 0, mice were immunized with 250 μg GA (GMA, Mylan Pharmaceuticals, Inc.) and CFA. The GA solution (20 mg/mL) was diluted with Dulbecco's Phosphate-Buffered Saline to 5 mg/mL. The dosing formulation consisted of equal volumes of the diluted GA solution (5 mg/mL) and CFA solution, mixed until well-emulsified. Animals were weighed and allocated to groups. Animals were dosed by injection into four footpads. The injection volume per animal was 0.1 mL (about 10 μL into each front footpad, and 40 μL into each hind footpad).
Immunized animals were euthanized by cervical dislocation on Day 10 post-immunization. Lymph node cells were isolated from animals and treated with Myelin Basic Protein (MBP, a negative control), Concanavalin A (ConA, a positive control) or GA as shown in Table 16. Lymph nodes in the axillary and popliteal regions were removed aseptically in a purifier clean bench. […] The LN were then washed 3 times with −5 mL of RPMI medium, and isolated by pressing the LN with a syringe plunger. […] The cell suspension was centrifuged at about 200×g for 10 minutes at about 4° C. and re-suspended in ice cold enriched DCCM-1 medium. Cells were seeded in 96-well tissue culture plates.
LN cells isolated from GA-immunized animals were stimulated with GA (GMA, Mylan Pharmaceuticals, Inc.) at concentrations as indicated in Tables 16 and 17. A positive control was prepared by treating LN cells with 2.5 μg/mL concavalin A (ConA, a non-specific T cell stimulant). Myelin basic protein (MBP, 10 μg/mL) and enriched DCCM-1 medium served as negative controls. The cells from all groups each were stimulated with the same GA lot. Each reaction was set up in triplicate.
After incubation at about 37° C. in a humidified CO2 incubator for 6 hours, the cells were lysed for total RNA isolation. Total RNA was isolated from treated LN cells using SV 96 Total RNA Isolation System according to the manufacturer's protocol (Promega, Cat. #Z3500). Cells were washed once with Phosphate Buffered Saline (PBS) and lysed in RNA lysis buffer. The lysate was transferred to wells of the SV 96 binding plate. Samples were washed with RNA wash solution and treated with DNase. Total RNA was eluted with nuclease-free water from the binding plate.
After the reverse transcriptase reaction was completed, cDNA samples were used directly for real-time PCR to measure the response biomarker mRNA levels produced by the stimulated cells. […] All probes for target genes contained FAM dye, and probes for the internal control contained VIC®/MGB dye. Samples will be prepared and run in 96-well plates using a Real-Time PCR system (7500, Life Technologies). This system allows direct detection of PCR-product formation by measuring the increase in fluorescent emission continuously during the PCR reaction. A relative quantitation method was used to analyze changes in mouse IL-2, IL-4, IL-5, IL-10, IL-13, IFN-γ and TNF-α expression in GA-treated samples relative to the untreated control (enriched DCCM-1 treated) samples. The Real-Time PCR program was:
The levels of mouse cytokine amplicons (IL-2, IL-4, IL-5, IL-10, IL-13, mIFN-γ and TNF-α) were normalized to internal probe levels (GAPDH) from the same samples. The following equations were used to calculate the relative increase in response to GA stimulation compared to the control sample: ΔCT=CT_target−CT_reference ΔΔCT=−ΔCT_Treated−CT_VC

For experiment [3], the system named is IL-12 (total) secreted by LN cells. Description: IL-12 (total) secretion by GA-stimulated LN cells, MSD 9-plex ELISA (Example II). The settings on record: for IL-12 (total) secretion response ratio (treated cell medium to control DCCM1 medium): 21 hr. How it is done:
Animals at 8 weeks of age were immunized by injection into four footpads using a 1 mL syringe with a 27-G, 1⁄2-inch needle. […] Ten days post-immunization, immunized animals were sacrificed via cervical dislocation. […] The LN cells were isolated by pressing the LN with the plunger end of a sterile syringe. […] Trypan blue exclusion method was used to determine the cell density of viable cells in the suspension. […] Cat. […] LN cells were plated into a 24-well tissue culture plate for drug stimulation. […] Cell debris was removed by centrifugation at ca. 200×g for 10 minutes at 4° C. Cytokines secreted by treated cells were determined on the day of collection by ELISA using mouse TH 1/TH 2 9-Plex Tissue Culture Kit (Meso Scale Discovery; Cat No. […]-2, Lot #: K0032839) which detects Th1 cytokines (IFN-γ, IL-2, IL-12, IL-1β, TNF-α, CXCL1) and Th2 cytokines (IL-4, IL-5 and IL-10). For IFN-γ, culture media also were assayed at 45 hours using mouse IFN-γ Tissue Culture Kit (Meso Scale Discovery; Cat No. […] For the positive control, 0.5 mL of LN cells (5×10^6 cells/well) were treated with 0.5 mL of ConA (5 μg/mL). For the negative control, 0.5 mL of LN cells (5×10^6 cells/well) were treated with 0.5 mL of MBP (20 μg/mL). The LN cells with mock stimulation (enriched DCCM1 medium) were used to monitor the background level of a cytokine. For the cytokine assays, calibration standards or samples were incubated in the MULTI-SPOT or the SINGLE-SPOT plate and each cytokine bound to its corresponding capture antibody. All test samples were run in duplicate. The amount of each cytokine on its distinct spot was quantified using a cytokine-specific detection antibody labeled with MSD SULFO-TAGTM reagent. Electrochemiluminescent signals from immobilized SULFO-TAGTM-labeled complexes on each spot from each well were captured by the MSD SECTOR Imager 6000, which produces a signal directly proportional to the amount of captured cytokine in a test sample. The levels of cytokines in test samples were derived by interpolation from calibration curves with calibration standards of known concentrations using reagents provided with the MSD kits. Kits were used according to the manufacturer's protocols. […] Data are expressed as a response ratio of cytokine concentration in treated cell medium to control DCCM1 medium.

[4] abbreviates: BALB/cByJ, immunized GA Lower Limb.
[5] abbreviates: C57BL10J, immunized GA Intraplantar.
[6] abbreviates: C57BL10J, immunized GA Lower Limb.

Regarding “Concanavalin A [ConA, reference compound]”, the “mIL-10 mRNA” value in experiment [1] (Group 1B (GA + CFA), 4 hours post-stimulation, GA 10, MBP 10, ConA 2.5 μg/mL, reference GAPDH) came to 2.3 fold change vs control; in experiment [1] (Group 1B (GA + CFA), 6 hours post-stimulation, GA 10, MBP 10, ConA 2.5 μg/mL, reference GAPDH) it was 1.2 fold change vs control; in experiment [1] (Group 2B (Mannitol + CFA), 4 hours post-stimulation, GA 10, MBP 10, ConA 2.5 μg/mL, reference GAPDH) it was 1.6 fold change vs control; in experiment [1] (Group 2B (Mannitol + CFA), 6 hours post-stimulation, GA 10, MBP 10, ConA 2.5 μg/mL, reference GAPDH) it was 3.1 fold change vs control. The “IL-2 secretion response ratio (treated cell medium to control DCCM1 medium)” value in experiment [2] (setting [4]) worked out at 283.65; in experiment [2] (setting [5]), 40.09; in experiment [2] (setting [6]) it was 31.11; in experiment [2] (CD-1, immunized GA Lower Limb), 19.64. The “TNF-α mRNA Expression” value in the experiment on TNF-α mRNA in LN cells (Group 1C: CD-1, GA-immunized, stimulation 2.5 μg/mL) came to 0.6 fold change vs control; in the experiment on TNF-α mRNA in LN cells (Group 2C: BALB/cByJ, GA-immunized, stimulation 2.5 μg/mL) it was 0.8 fold change vs control; in the experiment with TNF-α mRNA in LN cells (Group 3C: SJL/J, GA-immunized, stimulation 2.5 μg/mL), 0.7 fold change vs control. In addition, the “IL-12 (total) secretion response ratio (treated cell medium to control DCCM1 medium)” value in experiment [3] (BALB/cByJ, immunized GA Intraplantar) worked out at 1.66; in experiment [3] (setting [4]), 1.10; in experiment [3] (BALB/cByJ, immunized Mannitol Intraplantar), 1.44; in experiment [3] (setting [5]) it was 1.88; in experiment [3] (setting [6]), 1.01; in experiment [3] (C57BL10J, immunized Mannitol Intraplantar), 0.92. Further, the “IL-12 (total) secretion response ratio (treated cell medium to control DCCM1 medium)” value in experiment [3] (CD-1, immunized GA Intraplantar) is reported as 1.09; in experiment [3] (CD-1, immunized GA Lower Limb), 1.91; in experiment [3] (CD-1, immunized Mannitol Intraplantar) it was 1.80.

Consider “L-glutamic acid polymer with L-alanine, L-lysine and L-tyrosine, acetate (salt) [GA]”, for which the “mIL-10 mRNA” value in experiment [1] is 1.7 fold change vs control and 1.4 fold change vs control and 1.2 fold change vs control and 0.9 fold change vs control. Moreover, the “IL-2 secretion, dose response to GA (in words)” value in experiment [2] (LN cells from each of the three mouse strains) is “dose-dependent manner”. Also, the “TNF-α mRNA Expression” value in the experiment with TNF-α mRNA in LN cells (Group 1C: CD-1, GA-immunized, stimulation 0.3 μg/mL) is reported as 1.0 fold change vs control; in the experiment with TNF-α mRNA in LN cells (Group 1C: CD-1, GA-immunized, stimulation 1 μg/mL), 1.1 fold change vs control; in the experiment with TNF-α mRNA in LN cells (Group 1C: CD-1, GA-immunized, stimulation 3 μg/mL), 1.4 fold change vs control; with TNF-α mRNA in LN cells (Group 1C: CD-1, GA-immunized, stimulation 10 μg/mL) it was 1.1 fold change vs control; in the experiment on TNF-α mRNA in LN cells (Group 2C: BALB/cByJ, GA-immunized, stimulation 0.3 μg/mL) it was 0.1 fold change vs control; in the experiment with TNF-α mRNA in LN cells (Group 2C: BALB/cByJ, GA-immunized, stimulation 1 μg/mL) it was 1.0 fold change vs control. For the same substance, the “TNF-α mRNA Expression” value in the experiment with TNF-α mRNA in LN cells (Group 2C: BALB/cByJ, GA-immunized, stimulation 3 μg/mL) came out at 0.8 fold change vs control; in the experiment on TNF-α mRNA in LN cells (Group 2C: BALB/cByJ, GA-immunized, stimulation 10 μg/mL), 0.5 fold change vs control; in the experiment on TNF-α mRNA in LN cells (Group 3C: SJL/J, GA-immunized, stimulation 0.3 μg/mL), 0.8 fold change vs control; in the experiment on TNF-α mRNA in LN cells (Group 3C: SJL/J, GA-immunized, stimulation 1 μg/mL), 0.9 fold change vs control; in the experiment on TNF-α mRNA in LN cells (Group 3C: SJL/J, GA-immunized, stimulation 3 μg/mL) it was 0.9 fold change vs control; in the experiment with TNF-α mRNA in LN cells (Group 3C: SJL/J, GA-immunized, stimulation 10 μg/mL), 0.8 fold change vs control. Also, in experiment [3] (cells from any of the three mouse strains), the “IL-12 secretion, dose response to GA (in words)” value is given as “No dose response”.
